Assay results: ChEMBL document CHEMBL6078677, “Discovery and optimization of tetrahydroacridine derivatives as a novel class of antibiotics against multidrug-resistant Gram-positive pathogens by targeting type I signal peptidase and disrupting bacterial membrane” (Eur J Med Chem, 2025)
Values after ≈ are worked out from the molar mass of the structure shown.

Legend:
Staphylococcus aureus [1] = experiment: Antimicrobial activity against Staphylococcus aureus ATCC 29213 assessed as inhibition of visible growth of bacteria incubated for 20 hrs by broth microdilution method; type: functional
Enterococcus faecium [2] = experiment: Antimicrobial activity against Enterococcus faecium QF31 harboring erythromycin resistance rRNA methylase B and chloramphenicol-florfenicol resistance methylase assessed as inhibition of visible growth of bacteria incubated for 20 hrs by broth microdilution method; type: functional
Streptococcus suis = experiment: Antimicrobial activity against Streptococcus suis P1/7 assessed as inhibition of visible growth of bacteria incubated for 20 hrs by broth microdilution method; type: functional
Staphylococcus aureus [3] = experiment: Antimicrobial activity against Staphylococcus aureus YZSA-15 harboring erythromycin resistance rRNA methylase C and vancomycin resistance locus assessed as inhibition of visible growth of bacteria incubated for 20 hrs by broth microdilution method; type: functional
Staphylococcus aureus [4] = experiment: Antimicrobial activity against Staphylococcus aureus YZSA-21 harboring erythromycin resistance rRNA methylase C assessed as inhibition of visible growth of bacteria incubated for 20 hrs by broth microdilution method; type: functional
Staphylococcus aureus [5] = experiment: Antimicrobial activity against Staphylococcus aureus YZSA-24 harboring erythromycin resistance rRNA methylase C and methicillin resistance gene resistance locus assessed as inhibition of visible growth of bacteria incubated for 20 hrs by broth microdilution method; type: functional
Enterococcus faecium [6] = experiment: Antimicrobial activity against Enterococcus faecium HFY01 assessed as inhibition of visible growth of bacteria incubated for 20 hrs by broth microdilution method; type: functional
Enterococcus faecium [7] = experiment: Antimicrobial activity against Enterococcus faecium MC38 harboring erythromycin resistance rRNA methylase B and oxazolidinone-phenicol transferable resistance gene assessed as inhibition of visible growth of bacteria incubated for 20 hrs by broth microdilution method; type: functional
Enterococcus faecalis [8] = experiment: Antimicrobial activity against Enterococcus faecalis JH2-2 assessed as inhibition of visible growth of bacteria incubated for 20 hrs by broth microdilution method; type: functional
Enterococcus faecalis [9] = experiment: Antimicrobial activity against Enterococcus faecalis ES01 harboring erythromycin-resistance rRNA methylase B and vanB-type vancomycin-resistance locus assessed as inhibition of visible growth of bacteria incubated for 20 hrs by broth microdilution method; type: functional
Enterococcus faecalis [10] = experiment: Antimicrobial activity against Enterococcus faecalis J2 harboring erythromycin-resistance rRNA methylase B and oxazolidinone phenicol transferable resistance gene assessed as inhibition of visible growth of bacteria incubated for 20 hrs by broth microdilution method; type: functional
Streptococcus pyogenes = experiment: Antimicrobial activity against Streptococcus pyogenes DL02 harboring erythromycin-resistance rRNA methylase B assessed as inhibition of visible growth of bacteria incubated for 20 hrs by broth microdilution method; type: functional
Streptococcus agalactiae = experiment: Antimicrobial activity against Streptococcus agalactiae DL03 harboring erythromycin-resistance rRNA methylase B assessed as inhibition of visible growth of bacteria incubated for 20 hrs by broth microdilution method; type: functional
Salmonella enteritidis = experiment: Antimicrobial activity against Salmonella enteritis S1 assessed as inhibition of visible growth of bacteria incubated for 20 hrs by broth microdilution method; type: functional, Salmonella enterica subsp. enterica serovar Enteritidis; conditions: Salmonella enterica
Klebsiella pneumoniae = experiment: Antimicrobial activity against Klebsiella pneumoniae 9-1 assessed as inhibition of visible growth of bacteria incubated for 20 hrs by broth microdilution method; type: functional
Acinetobacter baumannii [11] = experiment: Antimicrobial activity against Acinetobacter baumannii AB11 assessed as inhibition of visible growth of bacteria incubated for 20 hrs by broth microdilution method; type: functional
Acinetobacter baumannii [12] = experiment: Antimicrobial activity against Acinetobacter baumannii 7979 assessed as inhibition of visible growth of bacteria incubated for 20 hrs by broth microdilution method; type: functional
Pseudomonas aeruginosa [13] = experiment: Antimicrobial activity against Pseudomonas aeruginosa PA01 assessed as inhibition of visible growth of bacteria incubated for 20 hrs by broth microdilution method; type: functional
Pseudomonas aeruginosa [14] = experiment: Antimicrobial activity against Pseudomonas aeruginosa PA14 assessed as inhibition of visible growth of bacteria incubated for 20 hrs by broth microdilution method; type: functional
Enterococcus faecalis [15] = experiment: microbe, parasite or virus in culture; type: functional; conditions: SF23-1, time 20 hrs
Description: Antimicrobial activity against Enterococcus faecalis SF23-1 harboring erythromycin-resistance rRNA methylase B, tetracycline efflux protein L and chloramphenicol-florfenicol resistance methylase assessed as inhibition of visible growth of bacteria incubated for 20 hrs by broth microdilution method

SMILES | MIC (Staphylococcus aureus [1]) [µg/mL] | MIC (Enterococcus faecium [2]) [µg/mL] | MIC (Streptococcus suis) [µg/mL] | MIC (Enterococcus faecalis [15]) [µg/mL] | further results
CC1(C)S[C@@H]2[C@H](NC(=O)[C@H](N)c3ccccc3)C(=O)N2[C@H]1C(=O)O [AMPICILLIN] | 1 (≈ 2.86 µM) | 16 (≈ 45.8 µM) | ≤ 0.5 | – | MIC (Staphylococcus aureus [3]): 2 µg/mL (≈ 5.72 µM); MIC (Staphylococcus aureus [4]): 1 µg/mL (≈ 2.86 µM); MIC (Staphylococcus aureus [5]): > 32 µg/mL; MIC (Enterococcus faecium [6]): 1 µg/mL (≈ 2.86 µM); MIC (Enterococcus faecium [7]): 32 µg/mL (≈ 91.6 µM); MIC (Enterococcus faecalis [8]): 16 µg/mL (≈ 45.8 µM); MIC (Enterococcus faecalis [9]): 16 µg/mL (≈ 45.8 µM); MIC (Enterococcus faecalis [10]): > 32 µg/mL; MIC (Streptococcus pyogenes): 0.5 µg/mL (≈ 1.43 µM); MIC (Streptococcus agalactiae): 0.5 µg/mL (≈ 1.43 µM); MIC (Salmonella enteritidis): 32 µg/mL (≈ 91.6 µM); MIC (Klebsiella pneumoniae): > 32 µg/mL; MIC (Acinetobacter baumannii [11]): < 0.06 µg/mL; MIC (Acinetobacter baumannii [12]): > 32 µg/mL; MIC (Pseudomonas aeruginosa [13]): > 32 µg/mL; MIC (Pseudomonas aeruginosa [14]): > 32 µg/mL
CC1C/C(=C\c2cccc(-c3ccc(Cl)c(C(F)(F)F)c3)c2)c2nc3ccc(O)cc3c(C(=O)O)c2C1 (racemic) | 8 (≈ 15.3 µM) | 8 (≈ 15.3 µM) | 4 (≈ 7.63 µM) | 16 (≈ 30.5 µM) | –
Cc1cc(/C=C2\CC(C)Cc3c2nc2ccccc2c3C(=O)O)cc(C)c1Oc1ccc([N+](=O)[O-])cc1 (racemic) | 4 (≈ 8.09 µM) | 8 (≈ 16.2 µM) | > 64 | 16 (≈ 32.4 µM) | –
CC1C/C(=C\c2cccc(-c3ccc(Cl)c(C(F)(F)F)c3)c2)c2nc3ccccc3cc2C1 (racemic) | > 64 | > 64 | > 64 | > 64 | –
CC1C/C(=C\c2nc(-c3ccc(Cl)c(C(F)(F)F)c3)cs2)c2nc3ccccc3c(C(=O)O)c2C1 (racemic) | 16 (≈ 31.1 µM) | 32 (≈ 62.1 µM) | 64 (≈ 124 µM) | 16 (≈ 31.1 µM) | –
Cc1cc(/C=C2\CC(C)Cc3c2nc2ccccc2c3C(=O)O)cc(C)c1O (racemic) | > 64 | > 64 | > 64 | > 64 | –
CCCCCCc1ccc(-c2ccc(/C=C3\CC(C)Cc4c3nc3ccc(OC)cc3c4C(=O)O)cc2)cc1 (racemic) | 16 (≈ 30.8 µM) | 4 (≈ 7.7 µM) | 32 (≈ 61.6 µM) | 8 (≈ 15.4 µM) | –
COc1ccc2nc3c(c(C(=O)O)c2c1)CC(C)C/C3=C\c1ccc(Oc2c(Cl)cc(N)cc2Cl)cc1 (racemic) | 4 (≈ 7.47 µM) | 8 (≈ 14.9 µM) | 64 (≈ 120 µM) | 16 (≈ 29.9 µM) | –
CC1(C)C/C(=C\c2ccc(-c3ccc(Cl)c(C(F)(F)F)c3)o2)c2nc3ccccc3c(C(=O)O)c2C1 | 32 (≈ 62.5 µM) | 8 (≈ 15.6 µM) | 32 (≈ 62.5 µM) | 4 (≈ 7.81 µM) | –
CC1C/C(=C\c2cccc(-c3ccc(Cl)c(C(F)(F)F)c3)c2)c2nc3cc(N4CCN(C)CC4)ccc3c(C(=O)O)c2C1 (racemic) | 16 (≈ 26.4 µM) | 8 (≈ 13.2 µM) | 8 (≈ 13.2 µM) | 8 (≈ 13.2 µM) | –
Cc1ccc(-c2ccc(/C=C3\CC(C)Cc4c3nc3ccccc3c4C(=O)O)o2)c(Cl)c1 (racemic) | 4 (≈ 9.01 µM) | 16 (≈ 36 µM) | > 64 | 8 (≈ 18 µM) | –
FC(F)(F)c1cc(-c2ccc(/C=C3\CCCc4c3nc3ccccc3c4Cl)o2)ccc1Cl | > 64 | 64 (≈ 135 µM) | > 64 | > 64 | –
O=C(O)c1c2c(nc3ccccc13)/C(=C/c1ccc(-c3ccc(Cl)cc3)o1)CCC2 | 16 (≈ 38.5 µM) | 16 (≈ 38.5 µM) | 32 (≈ 76.9 µM) | > 64 | –
COc1ccc2nc3c(c(C(=O)O)c2c1)CC(C)C/C3=C\c1ccc(-c2ccc(Cl)c(C(F)(F)F)c2)o1 (racemic) | 32 (≈ 60.6 µM) | > 64 | 64 (≈ 121 µM) | 64 (≈ 121 µM) | –
COc1ccc2nc3c(c(C(=O)O)c2c1)CC(C)C/C3=C\c1cccc(NC(=O)c2cccc(Cl)c2Cl)c1 (racemic) | > 64 | > 64 | > 64 | > 64 | –
CC1C/C(=C\c2ccc(-c3ccc(Cl)c(Cl)c3)o2)c2nc3ccccc3c(C(=O)O)c2C1 (racemic) | 8 (≈ 17.2 µM) | 16 (≈ 34.5 µM) | > 64 | 8 (≈ 17.2 µM) | –
CC1C/C(=C\c2ccc(-c3cccc(Cl)c3Cl)cc2)c2nc3ccccc3c(C(=O)O)c2C1 (racemic) | 2 (≈ 4.22 µM) | 8 (≈ 16.9 µM) | > 64 | 8 (≈ 16.9 µM) | –
CC1C/C(=C\c2ncc([N+](=O)[O-])n2C)c2nc3ccccc3c(C(=O)O)c2C1 (racemic) | > 64 | > 64 | > 64 | > 64 | –
CC1C/C(=C\c2ccc(-c3ccc(Cl)c(C(F)(F)F)c3)o2)c2nc3ccccc3c(C(=O)N3CCN(C)CC3)c2C1 (racemic) | > 64 | > 64 | > 64 | > 64 | –

SMILES | MIC (Staphylococcus aureus [1]) [µg/mL] | MIC (Enterococcus faecium [2]) [µg/mL] | MIC (Streptococcus suis) [µg/mL] | MIC (Enterococcus faecalis [15]) [µg/mL] | further results
CC1C/C(=C\c2ccc(-c3cccc(Cl)c3Cl)o2)c2nc3ccccc3c(C(=O)O)c2C1 (racemic) | 2 (≈ 4.31 µM) | 8 (≈ 17.2 µM) | 64 (≈ 138 µM) | 8 (≈ 17.2 µM) | –
CCCCCCCCc1ccc(-c2ccc(/C=C3\CC(C)Cc4c3nc3ccc(OC)cc3c4C(=O)O)cc2)cc1 (racemic) | > 64 | 8 (≈ 14.6 µM) | 32 (≈ 58.4 µM) | 16 (≈ 29.2 µM) | –
O=C(O)C1=c2ccccc2=NC2/C(=C/c3cccc(-c4ccc(Cl)c(C(F)(F)F)c4)c3)CCC12 (configuration not stated) | > 64 | > 64 | > 64 | > 64 | –
CC1C/C(=C\c2ccc(-c3ccc(Cl)c(C(F)(F)F)c3)nc2)c2nc3ccccc3c(C(=O)O)c2C1 (racemic) | 4 (≈ 7.86 µM) | 8 (≈ 15.7 µM) | > 64 | 8 (≈ 15.7 µM) | –
COc1ccc2nc3c(c(C(=O)O)c2c1)CC(C)C/C3=C\c1ccc(-c2ccc(Cl)c(C(F)(F)F)c2)cc1 (racemic) | 4 (≈ 7.44 µM) | 4 (≈ 7.44 µM) | > 64 | 4 (≈ 7.44 µM) | –
CC1C/C(=C\c2ccc(-c3c(Cl)cc(Cl)cc3Cl)cc2)c2nc3ccccc3c(C(=O)O)c2C1 (racemic) | 2 (≈ 3.93 µM) | 8 (≈ 15.7 µM) | > 64 | 4 (≈ 7.86 µM) | –
CC1C/C(=C\c2cccc(-c3ccc(Cl)c(C(F)(F)F)c3)c2)c2nc3cc(N4CCOCC4)ccc3c(C(=O)O)c2C1 (racemic) | 8 (≈ 13.5 µM) | 4 (≈ 6.74 µM) | 8 (≈ 13.5 µM) | 32 (≈ 54 µM) | –
O=C(O)c1c2c(nc3ccccc13)/C(=C/c1ccc(-c3cccc(Cl)c3)o1)CCC2 | 16 (≈ 38.5 µM) | 16 (≈ 38.5 µM) | 16 (≈ 38.5 µM) | > 64 | –
CC1(C)C/C(=C\c2ccc(-c3cccc(Cl)c3Cl)o2)c2nc3ccccc3c(C(=O)O)c2C1 | 16 (≈ 33.4 µM) | 8 (≈ 16.7 µM) | > 64 | 8 (≈ 16.7 µM) | –
COc1ccc(-c2ccc(/C=C3\CC(C)Cc4c3nc3ccccc3c4C(=O)O)o2)cc1 (racemic) | > 64 | 16 (≈ 37.6 µM) | 32 (≈ 75.2 µM) | > 64 | –
CC1C/C(=C\c2cc3ccc(Br)cc3s2)c2nc3ccccc3c(C(=O)O)c2C1 (racemic) | 16 (≈ 34.5 µM) | 64 (≈ 138 µM) | 64 (≈ 138 µM) | 16 (≈ 34.5 µM) | –
CC1C/C(=C\c2cccc(-c3cccc(Cl)c3Cl)c2)c2nc3ccccc3c(C(=O)O)c2C1 (racemic) | 4 (≈ 8.43 µM) | 8 (≈ 16.9 µM) | > 64 | 8 (≈ 16.9 µM) | –
CC1C/C(=C\c2ccco2)c2nc3ccccc3c(C(=O)O)c2C1 (racemic) | > 64 | 16 (≈ 50.1 µM) | 32 (≈ 100 µM) | > 64 | –
CC1C/C(=C\c2ccc(-c3ccc(Cl)c(C(F)(F)F)c3)o2)c2nc3ccccc3c(C(=O)O)c2C1 (racemic) | 2 (≈ 4.02 µM) | 8 (≈ 16.1 µM) | 32 (≈ 64.3 µM) | 8 (≈ 16.1 µM) | –
CC1C/C(=C\c2cccc(-c3ccc(Cl)c(C(F)(F)F)c3)c2)c2nc3ccccc3c(C(N)=O)c2C1 (racemic) | > 64 | > 64 | > 64 | > 64 | –
CC1C/C(=C\c2cccc(-c3ccc(Cl)c(C(F)(F)F)c3)c2)c2nc3ccccc3c(C(=O)O)c2C1 (racemic) | 2 (≈ 3.94 µM) | 4 (≈ 7.87 µM) | > 64 | 4 (≈ 7.87 µM) | –
CC1C/C(=C\c2ccc(-c3ccc(Cl)cc3)o2)c2nc3ccccc3c(C(=O)O)c2C1 (racemic) | 8 (≈ 18.6 µM) | 16 (≈ 37.2 µM) | 32 (≈ 74.4 µM) | > 64 | –
CC1C/C(=C\c2ccc(-c3ccc([N+](=O)[O-])cc3)o2)c2nc3ccccc3c(C(=O)O)c2C1 (racemic) | 64 (≈ 145 µM) | 64 (≈ 145 µM) | > 64 | > 64 | –
CC1C/C(=C\c2ccc(-c3c(Cl)cc(C(F)(F)F)cc3Cl)cc2)c2nc3ccccc3c(C(=O)O)c2C1 (racemic) | 4 (≈ 7.37 µM) | 8 (≈ 14.7 µM) | > 64 | 8 (≈ 14.7 µM) | –
